Results on three substances are retold here after patent publication US8541361B2, “Composition” (DSM IP Assets B.V., priority 2009, dated 2013).

Square brackets hold non-standard residues; d marks the D form. * marks the point of attachment. Palmitoyl = CCCCCCCCCCCCCCCC(=O)*; Dab = NCC[C@H](N)C(=O)O

The nature of the data set: Storage stability: normalized peptide content by analytical HPLC of glycerin/water solutions in glass vials, with or without salt. The following applies: 40° C., glass vial. Type of data set: physicochemical. As to the method: Solutions of 127 mmol/kg H29C14—NH—CO-Dab-Val-Dab-OH in a Glycerin water mixture (˜2.3:1) containing salt concentrations of 382 mmol/kg have been prepared, distributed to 3 g per 10 ml glass vial and stored at 40° C. and 25° C. After various times, samples have been analyzed for their peptide content with analytical HPLC. The results have been normalized to the content at the preparation time to 100%.
Solutions of 119 mmol/kg Palm-Lys-Val-Lys-OH (SEQ ID NO:2) in Glycerin water mixture (˜2.3:1) containing salt concentrations of one or three equivalents as indicated below have been prepared, distributed to 3 g per 10 ml glass vial and stored at 40° C. After various times, samples have been analyzed for their peptide content with analytical HPLC. The results have been normalized to the content at the preparation time to 100%.
Solutions of 246 mmol/kg Palm-Lys-Val-Dab-OH (SEQ ID NO:5) in Glycerin water mixture (˜2.3:1) containing salt concentrations of one or three equivalents as indicated below have been prepared, distributed to 3 g per 10 ml glass vial and stored at 40° C. After various times, samples have been analyzed for their peptide content with analytical HPLC. The results have been normalized to the content at the preparation time to 100%.

For H29C14—NH—CO-Dab-Val-Dab-OH, the normalized peptide content is recorded as 100.0% (3 eq. CaCl2 (382 mmol/kg), t0, 127 mmol/kg peptide in Glycerin water); 92.2% (3 eq. CaCl2, 1 Month, 127 mmol/kg peptide in Glycerin water); 96.9% (3 eq. CaCl2, 2 Month, 127 mmol/kg peptide in Glycerin water); 101.1% (3 eq. CaCl2, 3 Month, 127 mmol/kg peptide in Glycerin water); 95.4% (3 eq. CaCl2, 4 Month, 127 mmol/kg peptide in Glycerin water); 89.0% (3 eq. CaCl2, 5 Month, 127 mmol/kg peptide in Glycerin water). In addition, the normalized peptide content (3 eq. CaCl2, 6 Month, 127 mmol/kg peptide in Glycerin water) was 88.9%; the normalized peptide content (3 eq. LiCl (382 mmol/kg), t0, 127 mmol/kg peptide in Glycerin water) is given as 100.0%; the normalized peptide content (3 eq. LiCl, 1 Month, 127 mmol/kg peptide in Glycerin water) is 93.1%; the normalized peptide content (3 eq. LiCl, 2 Month, 127 mmol/kg peptide in Glycerin water) was determined as 95.3%; the normalized peptide content (3 eq. LiCl, 3 Month, 127 mmol/kg peptide in Glycerin water) amounted to 99.8%; the normalized peptide content (3 eq. LiCl, 4 Month, 127 mmol/kg peptide in Glycerin water) is listed as 96.4%. For the same substance, the normalized peptide content was determined as 90.7% (3 eq. LiCl, 5 Month, 127 mmol/kg peptide in Glycerin water); 87.6% (3 eq. LiCl, 6 Month, 127 mmol/kg peptide in Glycerin water); 100.0% (3 eq. MgCl2 (382 mmol/kg), t0, 127 mmol/kg peptide in Glycerin water); 93.7% (3 eq. MgCl2, 1 Month, 127 mmol/kg peptide in Glycerin water); 96.5% (3 eq. MgCl2, 2 Month, 127 mmol/kg peptide in Glycerin water); 100.0% (3 eq. MgCl2, 3 Month, 127 mmol/kg peptide in Glycerin water). In addition, the normalized peptide content (3 eq. MgCl2, 4 Month, 127 mmol/kg peptide in Glycerin water) came to 94.9%; the normalized peptide content (3 eq. MgCl2, 5 Month, 127 mmol/kg peptide in Glycerin water) is 89.7%; the normalized peptide content (3 eq. MgCl2, 6 Month, 127 mmol/kg peptide in Glycerin water) stood at 90.7%; the normalized peptide content (3 eq. ZnCl2 (382 mmol/kg), t0, 127 mmol/kg peptide in Glycerin water) came out at 100.0%; the normalized peptide content (3 eq. ZnCl2, 1 Month, 127 mmol/kg peptide in Glycerin water) is on record as 88.5%; the normalized peptide content (3 eq. ZnCl2, 2 Month, 127 mmol/kg peptide in Glycerin water) is recorded as 93.5%. Further, the normalized peptide content was 98.7% (3 eq. ZnCl2, 3 Month, 127 mmol/kg peptide in Glycerin water); 96.5% (3 eq. ZnCl2, 4 Month, 127 mmol/kg peptide in Glycerin water); 88.1% (3 eq. ZnCl2, 5 Month, 127 mmol/kg peptide in Glycerin water); 92.3% (3 eq. ZnCl2, 6 Month, 127 mmol/kg peptide in Glycerin water); 106.2% (No salt, 1 Month, 127 mmol/kg peptide in Glycerin water); 91.7% (No salt, 2 Month, 127 mmol/kg peptide in Glycerin water). The normalized peptide content by setting is: (No salt, 3 Month, 127 mmol/kg peptide in Glycerin water) 18.9%; (No salt, 4 Month, 127 mmol/kg peptide in Glycerin water) 11.5%; (No salt, 5 Month, 127 mmol/kg peptide in Glycerin water) 10.1%; (No salt, t0, 127 mmol/kg peptide in Glycerin water (~2.3:1)) 100.0%.

As for “Palm-Lys-Val-Dab-OH (Palmitoyl-Lys-Val-[Dab]-OH; SMILES CCCCCCCCCCCCCCCC(=O)N[C@@H](CCCCN)C(=O)N[C@H](C(=O)N[C@@H](CCN)C(=O)O)C(C)C) [peptide substituted with a lipophilic moiety; Palm means palmitoyl and Dab means 2,4-diaminobutyroyl]”, the normalized peptide content (1 eq MgCl2, 1 Month, 246 mmol/kg peptide in Glycerin water) came out at 71.7%; the normalized peptide content (1 eq MgCl2, t0, 246 mmol/kg peptide in Glycerin water) was determined as 100.0%; the normalized peptide content (3 eq LiCl, 1 Month, 246 mmol/kg peptide in Glycerin water) was found to be 75.9%; the normalized peptide content (3 eq LiCl, t0, 246 mmol/kg peptide in Glycerin water) is reported as 100.0%; the normalized peptide content (3 eq MgCl2, 1 Month, 246 mmol/kg peptide in Glycerin water) came to 70.5%; the normalized peptide content (3 eq MgCl2, t0, 246 mmol/kg peptide in Glycerin water) amounted to 100.0%. Besides, the normalized peptide content came out at 75.7% (3 eq NaCl, 1 Month, 246 mmol/kg peptide in Glycerin water); 100.0% (3 eq NaCl, t0, 246 mmol/kg peptide in Glycerin water); 44.2% (No salt, 1 Month, 246 mmol/kg peptide in Glycerin water); 100.0% (No salt, t0, 246 mmol/kg peptide in Glycerin water (~2.3:1)).

With “Palm-Lys-Val-Lys-OH (Palmitoyl-Lys-Val-Lys-OH; SMILES CCCCCCCCCCCCCCCC(=O)N[C@@H](CCCCN)C(=O)N[C@H](C(=O)N[C@@H](CCCCN)C(=O)O)C(C)C) [peptide substituted with a lipophilic moiety; Palm means palmitoyl]”, the normalized peptide content was found to be 81.4% (1 eq MgCl2, 1 Month, 119 mmol/kg peptide in Glycerin water); 100.0% (1 eq MgCl2, t0, 119 mmol/kg peptide in Glycerin water); 83.6% (3 eq LiCl, 1 Month, 119 mmol/kg peptide in Glycerin water); 100.0% (3 eq LiCl, t0, 119 mmol/kg peptide in Glycerin water); 87.4% (3 eq MgCl2, 1 Month, 119 mmol/kg peptide in Glycerin water); 100.0% (3 eq MgCl2, t0, 119 mmol/kg peptide in Glycerin water). Besides, the normalized peptide content (3 eq NaCl, 1 Month, 119 mmol/kg peptide in Glycerin water) is given as 82.0%; the normalized peptide content (3 eq NaCl, t0, 119 mmol/kg peptide in Glycerin water) amounted to 100.0%; the normalized peptide content (No salt, 1 Month, 119 mmol/kg peptide in Glycerin water) is 76.4%; the normalized peptide content (No salt, t0, 119 mmol/kg peptide in Glycerin water (~2.3:1)) was 100.0%.
